Data on nine molecules can be found in patent US7105558B2, “Gastrin and cholecystokinin receptor lignads (iv)” (The James Black Foundation Limited, priority 2000, dated 2006).

This assay addresses T1, gastrin (CCK2) receptors (Rattus norvegicus, UniProt P30553).
T1 construct: The stomach was excised and flushed with ca. 1 ml of unbuffered physiological saline solution; from tissue; host or cells: isolated whole stomach of immature rats (33-50 g, ca. 21 days old)
T1 sequence (P30553 1-452): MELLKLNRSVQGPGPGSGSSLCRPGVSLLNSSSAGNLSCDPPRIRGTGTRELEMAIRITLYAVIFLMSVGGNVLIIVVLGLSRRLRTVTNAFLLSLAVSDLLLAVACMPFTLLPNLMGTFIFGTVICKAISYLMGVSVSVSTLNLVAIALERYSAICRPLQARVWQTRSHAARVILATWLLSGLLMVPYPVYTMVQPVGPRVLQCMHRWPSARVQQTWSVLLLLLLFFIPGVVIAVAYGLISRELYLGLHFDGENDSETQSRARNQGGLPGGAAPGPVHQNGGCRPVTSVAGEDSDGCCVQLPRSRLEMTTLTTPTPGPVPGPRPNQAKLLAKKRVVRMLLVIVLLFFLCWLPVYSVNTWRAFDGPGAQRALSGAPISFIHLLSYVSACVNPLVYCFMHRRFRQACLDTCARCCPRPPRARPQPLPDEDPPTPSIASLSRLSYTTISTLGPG
In words: immature rat stomach assay for gastrin (CCK2) antagonist activity (pentagastrin-stimulated acid secretion). To be noted: isolated immature rat stomach, antagonism of pentagastrin dose-response curves, 60 min incubation, tested as N-methyl D-glucamine salts; for Kb: read-out: Rat stomach pKB (converted). Here is the method: The compounds of the examples were tested for gastrin (CCK2) antagonist activity in an immature rat stomach assay. The procedure was as follows:
The oesophagus of immature rats (33-50 g, ca. 21 days old) was ligated at the level of the cardiac sphincter and the duodenal sphincter was cannulated. The stomach was excised and flushed with ca. 1 ml of unbuffered physiological saline solution. The fundus was punctured and cannulated. A further 4-5 ml of unbuffered solution was flushed through the stomach to ensure the preparation was not leaking. The stomach was lowered into a jacketed organ bath containing 40 ml of buffered solution containing 3×10^−8 M 5-methylfurmethide, maintained at 37° and gassed vigorously with 95% O2/5% CO2. The stomach was continuously perfused at a rate of 1 ml min^−1 with unbuffered solution gassed with 100% O2 with the perfusate passing over an internally referenced pH-electrode fixed 12 cm above the stomach.
After 120 min of stabilisation the drugs were added directly to the serosal solution in the organ bath and after a further 60 min cumulative pentagastrin dose-response curves were started. Changes in acid secretion were monitored and the curves analysed according to Black et al, Br. J. Pharmacol., 1985, 86, 581.

`O=C(O)c1cccc(NC(=O)c2nn[nH]c2COC23CC4CC(CC(C4)C2)C3)c1` [Example 24, 3-[[5-(Adamantan-1-yloxymethyl)-1/2/3H-[1,2,3]triazole-4-carbonyl]-amino]-benzoic acid]: the “Rat stomach pKB” value is 5.65 ± 0.33.
Take `Cc1ccc(-n2nc(COC34CC5CC(CC(C5)C3)C4)c(C(=O)Nc3cccc(C(=O)O)c3)n2)c(C)c1` [Example 25, 3-[[5-(Adamantan-1-yloxymethyl)-2-(2,4-dimethyl-phenyl)-2H-[1,2,3]triazole-4-carbonyl]-amino]-benzoic acid]: the Kb was 316 nM.
Consider `O=C(O)c1cccc(NC(=O)c2nn(-c3ccccc3[N+](=O)[O-])nc2COC23CC4CC(CC(C4)C2)C3)c1` [Example 26, 3-[[5-(Adamantan-1-yloxymethyl)-2-(2-nitro-phenyl)-2H-[1,2,3]triazole-4-carbonyl]-amino]-benzoic acid], for which the Kb was 380 nM.
Turning to `Nc1ccccc1-n1nc(COC23CC4CC(CC(C4)C2)C3)c(C(=O)Nc2cccc(C(=O)O)c2)n1` [Example 27], the “Rat stomach pKB” value came out at 6.67 ± 0.17.
As for `O=C(O)c1cccc(NC(=O)c2nn(-c3c(Cl)cccc3Cl)nc2COc2ccccc2)c1` [Example 28, 3-{[2-(2,6-Dichloro-phenyl)-5-phenoxymethyl-2H-[1,2,3]triazole-4-carbonyl]-amino}-benzoic acid], the Kb is 1230 nM.
On the same count and under the same terms, the same measure for `O=C(O)c1cccc(NC(=O)c2nn(-c3c(Cl)cccc3Cl)nc2COC2CCCCCC2)c1` [Example 29, 3-{[5-Cycloheptyloxymethyl-2-(2,6-dichloro-phenyl)-2H-[1,2,3]triazole-4-carbonyl]-amino}-benzoic acid]: 97.7 nM.
For the molecule `O=C(O)c1cccc(NC(=O)c2nn(-c3c(Cl)cccc3Cl)nc2COC2CCCCC2)c1` [Example 30, 3-{[5-Cyclohexyloxymethyl-2-(2,6-dichloro-phenyl)-2H-[1,2,3]triazole-4-carbonyl]-amino}-benzoic acid], the Kb is 275 nM.
Same read-out and setting: the same measure for `O=C(O)Cc1cccc(NC(=O)c2nn(-c3c(Cl)cccc3Cl)nc2COC23CC4CC(CC(C4)C2)C3)c1` [Example 31, (3-{[5-(Adamantan-1-yloxymethyl)-2-(2,6-dichloro-phenyl)-2H-[1,2,3]triazole-4-carbonyl]-amino}-phenyl)acetic acid]: 2820 nM; for `O=C(O)c1cccc(NC(=O)c2c(COC34CC5CC(CC(C5)C3)C4)nnn2C2CCCCCC2)c1` [Example 32, 3-{[5-(Adamantan-1-yloxymethyl)-3-cycloheptyl-3H-[1,2,3]triazole-4-carbonyl]-amino}-benzoic acid]: 3720 nM.
